We go through 15 compounds from patent US20180318311A1, “TRICYCLIC 2-QUINOLINONES AS ANTIBACTERIALS” (priority 2017, published 2018).

Holding throughout (assay type): cell-based
Test [1] concerns E. coli ATCC 25922 (NB27001). Kind of test: MIC by broth microdilution, E. coli NB27001. Conditions: Escherichia coli, ATCC25922, CAMHB, 35° C., 20 hours, read-out: Antibacterial activity (MIC) NB27001. The method in brief: (§1)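 CAMHB, ~5×10^5 CFU/mL, 2-fold serial dilutions (final DMSO 1%), 35° C, ambient air, 20 h. Read OD600 plus visual check; MIC = lowest conc. with no visible growth, μg/mL.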
For orientation: Dilution methods test growth across graded concentrations, often in twofold steps.

The test system of test [2] is S. pneumoniae ATCC 25922 (NB07001). Kind of test: MIC by broth microdilution, S. pneumoniae NB07001. The conditions noted are these: Streptococcus pneumoniae, read-out: Antibacterial activity (MIC) NB07001. An outline of the steps: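 CLSI broth microdilution in CAMHB, inoculum ~5×10^5 CFU/mL, two-fold compound dilutions at 1% final DMSO. Plates incubated 20 h at 35°C in ambient air; MIC (μg/mL) is the lowest concentration preventing visible growth, confirmed by OD600.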

The subject of test [3] is S. aureus NB01006-AVR005, gyrA (S84L), grlA (580F) and grlB (E471K). The test is described as follows: microbe, parasite or virus in culture. The conditions noted are these: Staphylococcus aureus, 20 h, read-out: Antibacterial activity (MIC) NB01006-AVR005. The method in brief: as §1
Test [4] deals with E. faecalis ATCC 29212 (NB04001). The test is described as follows: MIC by broth microdilution, E. faecalis NB04001. The conditions noted are these: Enterococcus faecalis, ATCC29212, CAMHB, 35° C., 20 hours, read-out: Antibacterial activity (MIC) NB04001. An outline of the steps:
as §1

Test [5] relates to S. aureus ATCC 49951 (NB01006). The test is described as follows: MIC by broth microdilution, S. aureus NB01006. The conditions noted are these: Staphylococcus aureus, ATCC49951, CAMHB, 35° C., 20 hours, read-out: Antibacterial activity (MIC) NB01006. An outline of the steps:
as §1

Test [6] has as its system S. aureus NB01080 fluoroquinolone-resistant clinical isolate. The test is described as follows: MIC by broth microdilution, S. aureus NB01080. The conditions noted are these: Staphylococcus aureus, CAMHB, 35° C., 20 hours, read-out: Antibacterial activity (MIC) NB01080. An outline of the steps:
as §1

Test [7] deals with P. aeruginosa NB52019, wild-type PAO1 strain. The test is described as follows: MIC by broth microdilution, P. aeruginosa NB52019. Conditions: Pseudomonas aeruginosa, CAMHB, 35° C., 20 hours, read-out: Antibacterial activity (MIC) NB52019. The method in brief:
as §1

The mark [8] stands for this setting: ATCC25922, S. pneumoniae, CAMHB supplemented with 5% lysed horse blood, 35° C., 20 hours.

Converted amounts (≈) assume the structure as drawn. Where a name gives a salt, the structure may show the parent alone. Read-outs that look alike come from different tables or passages of the source.

Take `NC1([C@@H]2CCN(c3c(F)cc4cc(C(=O)O)c(=O)n5c4c3OC[C@@H]5CF)C2)CC1` [Example 4, (R)-10-((R)-3-(1-aminocyclopropyl)pyrrolidin-1-yl)-9-fluoro-3-(fluoromethyl)-5-oxo-2,3-dihydro-5H-[1,4]oxazino[2,3,4-ij]quinoline-6-carboxylic acid]: the MIC in test [1] is 1 to 32 mg/L (≈ 2.47 to 78.9 µM); in test [2] (ATCC25922, 20 h) it was under 1 mg/L; in test [3], 1 to 32 mg/L (≈ 2.47 to 78.9 µM); in test [4], 1 to 32 mg/L (≈ 2.47 to 78.9 µM); in test [5] it was under 1 mg/L; in test [6] it was 1 to 32 mg/L (≈ 2.47 to 78.9 µM). Besides, in test [7], the MIC is over 32 mg/L.
`C[C@H]1COc2c(N3CC[C@@H](C4(N)CC4)C3)c(F)cc3cc(C#N)c(=O)n1c23.O=C(O)C(F)(F)F` [Example 5, (S)-10-((R)-3-(1-aminocyclopropyl)pyrrolidin-1-yl)-9-fluoro-3-methyl-5-oxo-2,3-dihydro-5H-[1,4]oxazino[2,3,4-ij]quinoline-6-carbonitrile trifluoroacetate salt]: the MIC in test [1] is 1 to 32 mg/L; in test [2] (setting [8]) it was under 1 mg/L; in test [3], under 1 mg/L; in test [4], under 1 mg/L; in test [5], under 1 mg/L; in test [6] it was under 1 mg/L. Further, the MIC in test [7] was in the range of 1 to 32 mg/L.
Turning to `C[C@H]1COc2c(N3CC4CC4(N)C3)c(F)cc3ccc(=O)n1c23` (stereo partly drawn) [Example 6.2, (3S)-10-(1-amino-3-azabicyclo[3.1.0]hexan-3-yl)-9-fluoro-3-methyl-2,3-dihydro-5H-[1,4]oxazino[2,3,4-ij]quinolin-5-one hydrochloride salt], the MIC in test [1] is 1 to 32 mg/L; in test [2] (ATCC25922, 20 h), 1 to 32 mg/L; in test [3], 1 to 32 mg/L; in test [4] it was 1 to 32 mg/L; in test [5] it was 1 to 32 mg/L; in test [6] it was under 1 mg/L. Besides, the MIC in test [7] is over 32 mg/L.
Take `C[C@H]1COc2c(N3CC[C@@H](C4(N)CC4)C3)c(F)cc3c(CN)cc(=O)n1c23` [Example 7.9, (S)-10-((R)-3-(1-aminocyclopropyl)pyrrolidin-1-yl)-7-(aminomethyl)-9-fluoro-3-methyl-2,3-dihydro-5H-[1,4]oxazino[2,3,4-ij]quinolin-5-one]: the MIC is under 1 mg/L in test [1]; under 1 mg/L in test [2] (ATCC25922, 20 h); under 1 mg/L in test [3]; under 1 mg/L in test [4]; under 1 mg/L in test [5]; 1 to 32 mg/L (≈ 2.68 to 85.9 µM) in test [6]. For the same compound, in test [7], the MIC is 1 to 32 mg/L (≈ 2.68 to 85.9 µM).
Take `C[C@H]1COc2c(N3CC4CC4(N)C3)c(F)cc3c(CN)cc(=O)n1c23` (stereo partly drawn) [Example 7.10, (3S)-10-(1-amino-3-azabicyclo[3.1.0]hexan-3-yl)-7-(aminomethyl)-9-fluoro-3-methyl-2,3-dihydro-5H-[1,4]oxazino[2,3,4-ij]quinolin-5-one]: the MIC in test [1] is under 1 mg/L; in test [2] (ATCC25922, 20 h), under 1 mg/L; in test [3], under 1 mg/L; in test [4], 1 to 32 mg/L (≈ 2.9 to 92.9 µM); in test [5], under 1 mg/L; in test [6] it was 1 to 32 mg/L (≈ 2.9 to 92.9 µM). Besides, the MIC in test [7] was in the range of 1 to 32 mg/L (≈ 2.9 to 92.9 µM).
For `CC1Cc2c(N3CC[C@@H]([C@H](C)N)C3)c(F)cc3cc(C(=O)O)c(=O)n1c23` (stereo partly drawn) [Example 9.2], the MIC in test [1] was 1 to 32 mg/L (≈ 2.78 to 89 µM); in test [2] (ATCC25922, 20 h), under 1 mg/L; in test [3], over 32 mg/L; in test [4] it was under 1 mg/L; in test [5], under 1 mg/L; in test [6] it was 1 to 32 mg/L (≈ 2.78 to 89 µM). Moreover, in test [7], the MIC is over 32 mg/L.
Take `CC1Cc2c(N3CCNCC3)c(F)cc3cc(C(=O)O)c(=O)n1c23` (stereo not drawn) [Example 9.3, 8-fluoro-2-methyl-4-oxo-9-(piperazin-1-yl)-1,2-dihydro-4H-pyrrolo[3,2,1-ij]quinoline-5-carboxylic acid]: the MIC in test [1] was 1 to 32 mg/L (≈ 3.02 to 96.6 µM); in test [2] (setting [8]) it was over 32 mg/L; in test [3] it was over 32 mg/L; in test [4], over 32 mg/L; in test [5], over 32 mg/L; in test [6], over 32 mg/L. Moreover, in test [7], the MIC was over 32 mg/L.
`C[C@H]1CNc2c(N3CC[C@@H](C4(N)CC4)C3)c(F)cc3cc(C(=O)O)c(=O)n1c23.Cl` [Example 10, (S)-10-((R)-3-(1-aminocyclopropyl)pyrrolidin-1-yl)-9-fluoro-3-methyl-5-oxo-2,3-dihydro-1H,5H-pyrido[1,2,3-de]quinoxaline-6-carboxylic acid hydrochloride salt]: the MIC in test [1] is 1 to 32 mg/L; in test [2] (setting [8]) it was 1 to 32 mg/L; in test [3], over 32 mg/L; in test [4], 1 to 32 mg/L; in test [5], 1 to 32 mg/L; in test [6] it was 1 to 32 mg/L. Besides, the MIC in test [7] is over 32 mg/L.
Regarding `C[C@H]1CSc2c(N3CC[C@@H](C4(N)CC4)C3)c(F)cc3cc(C(=O)O)c(=O)n1c23.Cl` [Example 11, (S)-10-((R)-3-(1-aminocyclopropyl)pyrrolidin-1-yl)-9-fluoro-3-methyl-5-oxo-2,3-dihydro-5H-[1,4]thiazino[2,3,4-ij]quinoline-6-carboxylic acid hydrochloride salt], the MIC in test [1] was 1 to 32 mg/L; in test [2] (setting [8]), under 1 mg/L; in test [3] it was 1 to 32 mg/L; in test [4], under 1 mg/L; in test [5] it was under 1 mg/L; in test [6], under 1 mg/L. For the same compound, the MIC in test [7] was over 32 mg/L.
As to `C[C@H]1COc2c(N3CC[C@@H](C4(N)CC4)C3)cc(F)c3cc(C(=O)O)c(=O)n1c23` [Example 12.1, (S)-10-((R)-3-(1-aminocyclopropyl)pyrrolidin-1-yl)-8-fluoro-3-methyl-5-oxo-2,3-dihydro-5H-[1,4]oxazino[2,3,4-ij]quinoline-6-carboxylic acid trifluoroacetate salt], the MIC in test [1] is under 1 mg/L; in test [2] (ATCC25922, 20 h), under 1 mg/L; in test [3], under 1 mg/L; in test [4] it was under 1 mg/L; in test [5] it was under 1 mg/L; in test [6], under 1 mg/L. Moreover, the MIC in test [7] was in the range of 1 to 32 mg/L.
Turning to `C[C@H](N)[C@@H]1CCN(c2cc(F)c3cc(C(=O)O)c(=O)n4c3c2OC[C@@H]4C)C1` [Example 12.2, (S)-10-((R)-3-((S)-1-aminoethyl)pyrrolidin-1-yl)-8-fluoro-3-methyl-5-oxo-2,3-dihydro-5H-[1,4]oxazino[2,3,4-ij]quinoline-6-carboxylic acid], the MIC in test [1] is 1 to 32 mg/L (≈ 2.66 to 85.2 µM); in test [2] (ATCC25922, 20 h) it was under 1 mg/L; in test [3], 1 to 32 mg/L (≈ 2.66 to 85.2 µM); in test [4], under 1 mg/L; in test [5], under 1 mg/L; in test [6], 1 to 32 mg/L (≈ 2.66 to 85.2 µM). Moreover, the MIC in test [7] lay within 1 to 32 mg/L (≈ 2.66 to 85.2 µM).
As to `C[C@H](N)[C@@H]1CCN(c2ccc3cc(C(=O)O)c(=O)n4c3c2OC[C@@H]4C)C1` [Example 12.4, (S)-10-((R)-3-((S)-1-aminoethyl)pyrrolidin-1-yl)-3-methyl-5-oxo-2,3-dihydro-5H-[1,4]oxazino[2,3,4-ij]quinoline-6-carboxylic acid], the MIC in test [1] is 1 to 32 mg/L (≈ 2.8 to 89.5 µM); in test [2] (ATCC25922, 20 h), under 1 mg/L; in test [3] it was 1 to 32 mg/L (≈ 2.8 to 89.5 µM); in test [4], under 1 mg/L; in test [5] it was under 1 mg/L; in test [6] it was 1 to 32 mg/L (≈ 2.8 to 89.5 µM). The MIC in test [7] lay within 1 to 32 mg/L (≈ 2.8 to 89.5 µM).
As for `C[C@H]1COc2c(N3CCC(F)(CN)C3)ccc3cc(C(=O)O)c(=O)n1c23` (stereo partly drawn) [Example 12.5, (3S)-10-(3-(aminomethyl)-3-fluoropyrrolidin-1-yl)-3-methyl-5-oxo-2,3-dihydro-5H-[1,4]oxazino[2,3,4-ij]quinoline-6-carboxylic acid], the MIC was 1 to 32 mg/L (≈ 2.77 to 88.6 µM) in test [1]; 1 to 32 mg/L (≈ 2.77 to 88.6 µM) in test [2] (ATCC25922, 20 h); over 32 mg/L in test [3]; 1 to 32 mg/L (≈ 2.77 to 88.6 µM) in test [4]; 1 to 32 mg/L (≈ 2.77 to 88.6 µM) in test [5]; 1 to 32 mg/L (≈ 2.77 to 88.6 µM) in test [6]. Also, the MIC in test [7] is over 32 mg/L.
Regarding `C[C@H]1COc2c(N3CC4CC4(N)C3)ccc3cc(C(=O)O)c(=O)n1c23` (stereo partly drawn) [Example 12.6, (3S)-10-(1-amino-3-azabicyclo[3.1.0]hexan-3-yl)-3-methyl-5-oxo-2,3-dihydro-5H-[1,4]oxazino[2,3,4-ij]quinoline-6-carboxylic acid], the MIC in test [1] is 1 to 32 mg/L (≈ 2.93 to 93.7 µM); in test [2] (ATCC25922, 20 h), 1 to 32 mg/L (≈ 2.93 to 93.7 µM); in test [3], over 32 mg/L; in test [4] it was 1 to 32 mg/L (≈ 2.93 to 93.7 µM); in test [5] it was 1 to 32 mg/L (≈ 2.93 to 93.7 µM); in test [6], 1 to 32 mg/L (≈ 2.93 to 93.7 µM). In test [7], the MIC is over 32 mg/L.
Consider `C[C@H]1COc2c(N3CC[C@@H](C4(N)CC4)C3)c(F)c(F)c3cc(C(=O)O)c(=O)n1c23` [Example 13.1, (S)-10-((R)-3-(1-aminocyclopropyl)pyrrolidin-1-yl)-8,9-difluoro-3-methyl-5-oxo-2,3-dihydro-5H-[1,4]oxazino[2,3,4-ij]quinoline-6-carboxylic acid hydrochloride salt], for which the MIC in test [1] is under 1 mg/L; in test [2] (ATCC25922, 20 h), under 1 mg/L; in test [3], under 1 mg/L; in test [4] it was under 1 mg/L; in test [5], under 1 mg/L; in test [6], under 1 mg/L. Further, the MIC in test [7] was in the range of 1 to 32 mg/L.
